Series [1] deals with Murine Lewis lung carcinoma cell line. Description: Spontaneous metastatic cancer in mice (Lewis lung carcinoma). The note with it: 100 mg/kg/d, intragastric administration. Here is the method:
The tumors growed to 1000 mm^3 and then were randomly divided into groups for adminstration, the groups were treated after three weeks. A total of 4 groups including ZYS-1 high, medium and low (100, 50, 25 mg/kg/d, intragastric administration) and positive control (gefitinib 100 mg/kg/d, intragastric administration) groups were set. The efficacy of ZYS-1 was evaluated in terms of general survival status (food intake, activity, hair etc.), tumor inhibition rate and metastasis inhibition rate.
The curve of tumor growth was plotted. On the next day after completing the treatment cycle, the animal was weighed. After collecting the blood, the animal was sacrificed. The tumor tissue was stripped, weighed, and the tumor inhibition rate was calculated. Store at −80 ? .
Metastasis rate=Number of mice with metastasis/Total number of mice×100%
Inhibition rate of metastasis loci=(average number of metastasis loci in the control group−average number of metastasis loci in the experimental group)/average number of metastasis loci in the control group×100%

Series [2] is described as follows: Solubility comparison of ZYS-1 and PAC-1 needle crystal (HPLC). It is filed as physicochemical. The following applies: organic solvent or mixture, thermodynamic from solid, room temperature. The method, then:
The appropriate amounts of ZYS-1 and PAC-1 needle crystal were dissolved into the appropriate amount of methanol, absolute ethanol, 95% ethanol, acetonitrile, ethyl ether, ethyl acetate, propanol, acetone, respectively, and sonicated for 1 hour, then left at room temperature for 24 hours to obtain the oversaturated solution. After centrifugation at 4000 r/min for 5 min, the supernatant was diluted appropriately and filtered through a 0.45 μm needle filter. The concentration was determined by HPLC and the solubility was calculated.

A short description of series [3]: In vivo pharmacokinetic comparison in rats. The following applies: male Wistar rats, 60 mg/Kg, n = 6. The method, then: Twelve male Wistar rats were randomly divided into ZYS-1 group and PAC-1 group. These rats were fasted for 12 hours before administration, and fed water freely. After ZYS-1 and PAC-1 needle crystal were given at the dose of 60 mg/Kg, 0.5 mL orbital blood was collected at 0, 5, 20, 30, 45, 60, 120, 180, 240, 360, 480, 720 mins, centrifuged at 5000 r/min for 5 min. 200 μL plasma was taken. The plasma was added 3 mL acetone and vortexed for 1 min. After centrifuging at 15000 r/min for 5 min, the supernatant was collected and dried under nitrogen at 37° C., to which 200 μL acetonitrile was added to be reconstituted. After sonication for 10 min, the mixture was vortexed for 1 min, and filtered through 0.45 microporous filter membrane. The filtrate was tested by HPLC, and the plasma concentration at each time point was calculated.

The nature of the next series: in vivo. The note with it: both sexes, ICR, mouse, in vivo, po. From the text:
(§1) Experimental materials: PAC-1 needle crystal (prepared according to the method of Quinn P. Peterson et al., J. Med. Chem. 2009, 52, 5721-5731), batch number 20090818.
(§2) Experimental animals and feeding conditions: ICR mice, half male and half female. Body weight 20±2 g, provided by Beijing Weitonglihua Experimental Animal Technology Co., Ltd., SPF grade feeding, certificate: SCXK (Beijing) 2006-0009. Particulate feed for mouse breeding was provided by Beijing Ke'ao Xieli Feed Co., Ltd. Animals were housed in barrier-level (Grade 2) animal lab in Beijing Anzhen Hospital, fluorescent lighting, 12 h light and dark cycle, room ? temperature 22˜24 ? , humidity 40-47%, air supply 10-12 times/h, Laboratory license number: SYXK (Beijing) 2005-0028. Mice were housed in clear plastic boxes with 5 per cage separated by gender.
(§3) The method of preparing the test drug: PAC-1 needle crystal was placed in a mortar to be finely ground. A propriate amount of PAC-1 crystal was accurately weighed, which was formulated with 0.5% CMC-Na to reach the desired concentration.
(§4) Animals grouping: After fasting (except for water) for 11 h, according to body weight, animals were randomly divided into groups of 10 with 5 males and 5 females. There were 8 groups in total. […]. One-time intragastric administration was used in the experiment. The negative control group was orally administered an equal volume of 0.5% CMC-Na. The animals started feeding at 3 hours after administration.
(§5) Observed indicators: immediately after administration, the observation of the responses of the animals to drugs (such as: general performance, respiration, activity, with or without convulsions, righting reflex, pain reflex, response to external stimuli and other indicators) was started. When observing and recording the symptom of toxic reaction after animal administration, the time and duration of toxicity, recovery time, and the time of animal death, the animal was immediately dissected grossly, visually observing the main organs (heart, liver, spleen, lung and kidney, stomach) to see if there is congestion, increased volume, hardens, discoloration. For survival animals, they were observed and recorded day by day whether there was delayed death and delayed toxicity reaction in 7 days. The animals were weighed and fed once every 2 days. After finishing observation for 7 days, the survival animals were dissected grossly and the situations of their main organs were observed. […]

The next series relates to ICR mice. Description: in vivo.
Text: as §1, §2, §3, §4, §5

A short description of series [4]: Solubility comparison of ZYS-1 and PAC-1 needle crystal (HPLC). It is filed as physicochemical. The following applies: room temperature.
Setting [5] is: both, ICR, mouse, in vivo, 7 days.
[6] abbreviates: one-time intragastric administration to mice.

SMILES strings stand for the structures. In brackets after ≈: the same amount, converted by molar mass.

For the compound `COc1cc2ncnc(Nc3ccc(F)c(Cl)c3)c2cc1OCCCN1CCOCC1` [Gefitinib, gefitinib, reference compound], in series [1], the “Body weight of the animals, End” value was 30.5 ± 5.0 g; the Metastasis rate is 100%; the “Number of lung (metastasis loci)” value was found to be 6.9 ± 3.7; the Tumor weight stood at 2.1036 ± 0.3382 g.
In general, solubility refers to the concentration that dissolves in the medium under given conditions. By Cmax is commonly meant the maximum level reached in the sampled fluid or tissue. In general, Tmax refers to the time from dosing to the highest level. What is called LD50 is the dose at which mortality reaches 50%. A higher LD50 goes with a less toxic substance. One may read the Solubility as the concentration that dissolves in the medium under given conditions. A high value points to much dissolved substance. Turning to `C=CCc1cccc(/C=N/NC(=O)CN2CCN(Cc3ccccc3)CC2)c1O` [PAC-1 needle crystal, 1-Piperazineacetic acid, 4-(phenylmethyl)-2-[[2-hydroxy-3-(2-propen-1-yl)phenyl]methylene], reference compound], the solubility at 24 h in series [2] (95% ethanol) stood at 16.4 mg/mL (≈ 41.9 mM). Further, in series [2] (absolute ethanol), the solubility at 24 h turned out to be 18.9 mg/mL (≈ 48.3 mM). For the same compound, the solubility at 24 h in series [2] (acetone) turned out to be 81.8 mg/mL (≈ 208 mM). In series [2] (acetonitrile), the solubility at 24 h turned out to be 20.7 mg/mL (≈ 52.8 mM). Moreover, the solubility at 24 h in series [2] (diethyl ether) turned out to be 3.51 mg/mL (≈ 8.94 mM). Also, in series [2] (ethyl acetate), the solubility at 24 h was determined as 33.4 mg/mL (≈ 85 mM). Besides, the solubility at 24 h in series [2] (methanol) was found to be 28.2 mg/mL (≈ 71.8 mM). The solubility at 24 h in series [2] (propanol) is 16 mg/mL (≈ 40.9 mM). In series [3], the “AUC(0-tn)” value was determined as 320.2186357 ± 127.0767162 µg·h/mL, the “AUC(0-∞)” value amounted to 578.8993071 ± 466.830172 µg·h/mL, the Cmax amounted to 2078.7579 ± 950.561 ng/mL and the “MRT(0-tn)” value was 254.3166 ± 180.2413 h. In series [3], the “MRT(0-∞)” value is recorded as 1501.7189 ± 1808.4213 h, the Tmax was determined as 52.5000 ± 12.5499 h, the T½ka is 15.4260 ± 11.8916 h and the T½α came to 134.7563 ± 63.3796 h. In series [3], this compound registered a V/F of 0.0318 ± 0.0177 L, a ka of 0.0720 ± 0.0468 h⁻¹, a ke of 0.0062 ± 0.0029 h⁻¹ and a lagtime of 8.8081 ± 4.8496 h. Also, the LD50 at 7 days in “in vivo” (LD50 95% confidence limit) fell in the range of 451 to 675 mg/kg. This compound yielded an LD50 at 7 days in the series “in vivo” (acute toxicity (LD50) dose) of 552 mg/kg. In the series on ICR mice (setting [5]), the 0% mortality dose stood at 240.1 mg/kg, the 100% mortality dose entry was “greater than 1000 mg/kg” and the “dose without apparent toxicity” value stood at 117.7 mg/kg. In addition, in the series with ICR mice (setting [6]), the “time for most survival animals to return to normal after dosing” value was not above 3 h and the “time of death after administration (mainly)” value is on record as 30˜60 min. For the same compound, the Solubility in series [4] (Water) amounted to 0.0015 mg/mL (≈ 0.00382 mM). The solubility at 24 h in series [4] (chloroform, organic solvent or mixture, thermodynamic from solid) worked out at 290 mg/mL (≈ 740 mM).

The record behind these values is patent US20180201594A1, “Compound pac-1 or salt thereof and pharmaceutical composition comprising same” (priority 2015, published 2018).
